Results as given in PubChem BioAssay AID1963831 (Molecular Pharmacology Branch, DTP, NCI, 2024).

System: 889142-216-R-J1-PDC complex spheroid viability
Assay: Anticancer human tumor 889142-216-R-J1-PDC patient-derived bladder carcinoma cell line growth inhibition [POLQ]
Conditions: for IC50: curve of first compound; for viability, T/C: stronger effect = lower value; active means viability on the fitted dose curve at most 10% of control; inactive means the rest
Description: Multicellular complex tumor spheroid response to Polymerase (POL) inhibitors (novobiocin, ART-558, RP6685) in combination with a variety of drugs and investigational agents in selected tumor cell lines
The POL inhibitors (novobiocin, ART-558, and RP6685) were evaluated both individually and in combination with standard of care and investigational anticancer small molecules within a complex spheroid model of solid tumors. . Complex spheroids include a stromal component modeled by human endothelial cells (HUVEC) and fibroblasts modeled by human mesenchymal stem cells (MSCs). The concentration ranges selected for each drug and investigational agent were based upon clinically achievable concentrations if the clinical Cmax of the agent was known.
Compounds. The drugs and investigational agents: novobiocin (NSC847541), ART-558 (NSC835418), RP-6685 (NSC848927), peposertib (NSC802822), ceralasertib (NSC780249), elimusertib (NSC800525), camonsertib (NSC841442), AZD-1390 (NSC803789), olaparib (NSC753686), talazoparib (NSC767125), rucaparib (NSC756644), sotorasib (NSC818433), MRTX-1133 (NSC836407), SN-38 (NSC673596), topotecan (NSC609699), epotoside (NSC141540), doxorubicin (NSC123127), gemcitabine (NSC613327), 5-fluorouracil (NSC19893), paclitaxel (NSC125973), vemurafenib (NSC761431), MSA-2 (NSC828583), SN-011 (NSC837082), adavosertib (NSC754352), prexasertib (NSC758257), carboplatin (NSC241240) and oxaliplatin (NSC266046), were obtained from the National Cancer Institute (NCI) Developmental Therapeutics Program Chemical Repository (21). The FDA-approved anticancer drug set is available from the Developmental Therapeutics Program at https://dtp.cancer.gov/organization/dscb/obtaining/. […] The stock solutions were prepared in dimethyl sulfoxide (DMSO, Sigma-Aldrich, St. Louis, MO, cat. D2650), except for the platinum compounds which were prepared in saline (Quality Biological, Gaithersburg, MD, cat. 114-055-101), at 800-fold the tested concentration and stored at -70 degrees C prior to their use. All drugs and investigational agents were tested over a range starting from a high concentration at or near the clinical Cmax and decreasing in half-log increments. If the clinical Cmax for an agent had not been determined, the highest concentration tested was 10 microM, except for SN-38, which was tested at a high concentration of 1 microM.
Cell Culture. All cells were maintained in an incubator at 37 degrees C and 5% CO2 with 95% humidity. The PDC lines were cultured according to standard operating procedures established by the NCI PDMR (https://pdmr.cancer.gov). Table 3 of the manuscript, lists the cell lines along with the number of the three cell types plated to form the mct-spheroids and media for tumor cell growth. After thawing, all PDC lines, except 997537-175-T-J1-PDC and 415267-285-R-J2-PDC, were cultured in Matrigel-coated flasks prepared with a working solution of 1X Ham's F-12 nutrient mix, without supplementation (Thermo Fisher Scientific, cat. 11765054), 100 U/mL penicillin-streptomycin (Thermo Fisher Scientific, cat. 15140122), and 2.5% Matrigel (Corning Inc., Corning, NY, cat. 354248) for the first three passages. The two PDC lines 997537-175-T-J1-PDC and 415267-285-R-J2-PDC were cultured on uncoated flasks. The 857933-349-R-J2-PDC line was cultured in 6C/Colon 1B media containing advanced DMEM/F-12 (Thermo Fisher Scientific, cat. 12634028), 10 mM HEPES (Thermo Fisher Scientific, cat. 15630080), 1X GlutaMAX supplement (Thermo Fisher Scientific, cat. 35050061), 0.1 mg/mL primocin (InvivoGen, San Diego, CA, cat. ant-pm-2), 10% defined fetal bovine serum, heat inactivated (HyClone Laboratories Inc., Logan, UT, cat. SH30070.03HI), 50% L-WRN conditioned media (ATCC, cat. CRL-3276), 1.25 mM N-Acetyl-L-cysteine (Sigma-Aldrich, cat. A9165), 10 mM nicotinamide (Sigma-Aldrich, cat. N0636), 1X B-27 supplement (Thermo Fisher Scientific, cat. 17504044), 1X N-2 supplement (Thermo Fisher Scientific, cat. […]

[1] = second compound 0.0316 µM, first compound 0.0316 µM
[2] = second compound 0.0316 µM, first compound 0.1 µM
[3] = second compound 0.0316 µM, first compound 0.316 µM
[4] = second compound 0.0316 µM, first compound 1 µM
[5] = second compound 0.0316 µM, first compound 3.16 µM
[6] = second compound 0.0316 µM, first compound 10 µM
[7] = second compound 0.1 µM, first compound 0.0316 µM
[8] = second compound 0.1 µM, first compound 0.1 µM
[9] = second compound 0.1 µM, first compound 0.316 µM
[10] = second compound 0.1 µM, first compound 1 µM
[11] = second compound 0.1 µM, first compound 3.16 µM
[12] = second compound 0.1 µM, first compound 10 µM
[13] = second compound 0.316 µM, first compound 0.0316 µM
[14] = second compound 0.316 µM, first compound 0.1 µM
[15] = second compound 0.316 µM, first compound 0.316 µM
[16] = second compound 0.316 µM, first compound 1 µM
[17] = second compound 0.316 µM, first compound 3.16 µM
[18] = second compound 0.316 µM, first compound 10 µM
[19] = second compound 1 µM, first compound 0.0316 µM
[20] = second compound 1 µM, first compound 0.1 µM
[21] = second compound 1 µM, first compound 0.316 µM
[22] = second compound 1 µM, first compound 1 µM
[23] = second compound 1 µM, first compound 3.16 µM
[24] = second compound 1 µM, first compound 10 µM
[25] = second compound 3.16 µM, first compound 0.0316 µM
[26] = second compound 3.16 µM, first compound 0.1 µM
[27] = second compound 3.16 µM, first compound 0.316 µM
[28] = second compound 3.16 µM, first compound 1 µM
[29] = second compound 3.16 µM, first compound 3.16 µM
[30] = second compound 3.16 µM, first compound 10 µM
[31] = second compound 10 µM, first compound 0.0316 µM
[32] = second compound 10 µM, first compound 0.1 µM
[33] = second compound 10 µM, first compound 0.316 µM
[34] = second compound 10 µM, first compound 1 µM
[35] = second compound 10 µM, first compound 3.16 µM
[36] = second compound 10 µM, first compound 10 µM
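Further: spheroids exposed to compounds for seven days.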

COc1cc2cc(C(=O)CCC(=O)O)sc2cc1OC + Nc1ccc(C#CCN(C(=O)Cc2ncc(C(F)(F)F)cc2C(F)(F)F)c2ccc(F)cc2)nn1
inactive: viability, T/C [1] 88.3% | viability, T/C [2] 108% | viability, T/C [3] 96.6% | viability, T/C [4] 92.9% | viability, T/C [5] 108% | viability, T/C [6] 61.9% | viability, T/C [7] 108% | viability, T/C [8] 89% | viability, T/C [9] 82.7% | viability, T/C [10] 115% | viability, T/C [11] 81.9% | viability, T/C [12] 79.2% | viability, T/C [13] 91.7% | viability, T/C [14] 86.5% | viability, T/C [15] 94% | viability, T/C [16] 117% | viability, T/C [17] 78.2% | viability, T/C [18] 78.5% | viability, T/C [19] 82.5% | viability, T/C [20] 96.3% | viability, T/C [21] 93% | viability, T/C [22] 89.5% | viability, T/C [23] 93.3% | viability, T/C [24] 68.2% | viability, T/C [25] 108% | viability, T/C [26] 83.6% | viability, T/C [27] 91.1% | viability, T/C [28] 71.7% | viability, T/C [29] 87.2% | viability, T/C [30] 76.8% | viability, T/C [31] 90.5% | viability, T/C [32] 79% | viability, T/C [33] 93.7% | viability, T/C [34] 101% | viability, T/C [35] 100% | viability, T/C [36] 89.4%
> 10 µM: IC50 (second compound 0.0316 µM) | IC50 (second compound 0.1 µM) | IC50 (second compound 0.316 µM) | IC50 (second compound 1 µM) | IC50 (second compound 3.16 µM) | IC50 (second compound 10 µM)

O=C(c1cc(Cc2n[nH]c(=O)c3ccccc23)ccc1F)N1CCN(C(=O)C2CC2)CC1 + Nc1ccc(C#CCN(C(=O)Cc2ncc(C(F)(F)F)cc2C(F)(F)F)c2ccc(F)cc2)nn1
inactive: viability, T/C [1] 94% | viability, T/C [2] 93% | viability, T/C [3] 66.3% | viability, T/C [4] 118% | viability, T/C [5] 80.1% | viability, T/C [6] 73.5% | viability, T/C [7] 95.3% | viability, T/C [8] 112% | viability, T/C [9] 83.7% | viability, T/C [10] 97.5% | viability, T/C [11] 79.5% | viability, T/C [12] 66.6% | viability, T/C [13] 110% | viability, T/C [14] 115% | viability, T/C [15] 85.2% | viability, T/C [16] 104% | viability, T/C [17] 97.5% | viability, T/C [18] 59.7% | viability, T/C [19] 152% | viability, T/C [20] 113% | viability, T/C [21] 94.8% | viability, T/C [22] 102% | viability, T/C [23] 85.2% | viability, T/C [24] 67.6% | viability, T/C [25] 104% | viability, T/C [26] 92.4% | viability, T/C [27] 90.1% | viability, T/C [28] 98.2% | viability, T/C [29] 95.1% | viability, T/C [30] 62.8% | viability, T/C [31] 111% | viability, T/C [32] 110% | viability, T/C [33] 97.5% | viability, T/C [34] 90.9% | viability, T/C [35] 76.3% | viability, T/C [36] 86.2%
> 10 µM: IC50 (second compound 0.0316 µM) | IC50 (second compound 0.1 µM) | IC50 (second compound 0.316 µM) | IC50 (second compound 1 µM) | IC50 (second compound 3.16 µM) | IC50 (second compound 10 µM)
